Test results published in publication PMC12823440, “Inhibitors supercharge kinase turnover through native proteolytic circuits” (Nature, 2025).

Experiments:
Assay in all cases: biochemical
[1] = target: T1, MAP4K3 (Homo sapiens, UniProt Q8IVH8)
T1 sequence (Q8IVH8 1-894): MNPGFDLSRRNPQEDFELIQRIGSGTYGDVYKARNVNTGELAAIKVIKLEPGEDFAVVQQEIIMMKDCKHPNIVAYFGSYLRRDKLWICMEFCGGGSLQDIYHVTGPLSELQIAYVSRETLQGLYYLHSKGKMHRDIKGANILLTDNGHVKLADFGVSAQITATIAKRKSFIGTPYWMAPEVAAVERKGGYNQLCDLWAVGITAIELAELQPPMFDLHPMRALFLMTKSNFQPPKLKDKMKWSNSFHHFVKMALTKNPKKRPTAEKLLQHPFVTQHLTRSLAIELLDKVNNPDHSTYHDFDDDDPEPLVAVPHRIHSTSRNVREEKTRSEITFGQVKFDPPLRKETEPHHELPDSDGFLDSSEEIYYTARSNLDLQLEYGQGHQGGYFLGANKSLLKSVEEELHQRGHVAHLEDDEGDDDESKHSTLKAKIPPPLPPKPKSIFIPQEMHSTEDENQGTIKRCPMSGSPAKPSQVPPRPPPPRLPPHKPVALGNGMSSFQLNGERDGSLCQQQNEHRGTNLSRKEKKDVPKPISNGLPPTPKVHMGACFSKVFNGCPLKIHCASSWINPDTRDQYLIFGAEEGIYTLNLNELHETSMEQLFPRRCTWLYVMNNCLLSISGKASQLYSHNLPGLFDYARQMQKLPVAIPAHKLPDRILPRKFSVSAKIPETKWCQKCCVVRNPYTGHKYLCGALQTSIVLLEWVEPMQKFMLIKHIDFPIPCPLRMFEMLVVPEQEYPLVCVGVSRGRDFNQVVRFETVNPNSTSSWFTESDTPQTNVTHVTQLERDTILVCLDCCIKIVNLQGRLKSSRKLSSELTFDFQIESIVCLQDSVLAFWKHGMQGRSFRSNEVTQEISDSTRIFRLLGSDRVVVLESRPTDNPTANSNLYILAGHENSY

[2] = target: ABL2 (Homo sapiens, UniProt P42684)
ABL2, sequence (P42684 whole entry): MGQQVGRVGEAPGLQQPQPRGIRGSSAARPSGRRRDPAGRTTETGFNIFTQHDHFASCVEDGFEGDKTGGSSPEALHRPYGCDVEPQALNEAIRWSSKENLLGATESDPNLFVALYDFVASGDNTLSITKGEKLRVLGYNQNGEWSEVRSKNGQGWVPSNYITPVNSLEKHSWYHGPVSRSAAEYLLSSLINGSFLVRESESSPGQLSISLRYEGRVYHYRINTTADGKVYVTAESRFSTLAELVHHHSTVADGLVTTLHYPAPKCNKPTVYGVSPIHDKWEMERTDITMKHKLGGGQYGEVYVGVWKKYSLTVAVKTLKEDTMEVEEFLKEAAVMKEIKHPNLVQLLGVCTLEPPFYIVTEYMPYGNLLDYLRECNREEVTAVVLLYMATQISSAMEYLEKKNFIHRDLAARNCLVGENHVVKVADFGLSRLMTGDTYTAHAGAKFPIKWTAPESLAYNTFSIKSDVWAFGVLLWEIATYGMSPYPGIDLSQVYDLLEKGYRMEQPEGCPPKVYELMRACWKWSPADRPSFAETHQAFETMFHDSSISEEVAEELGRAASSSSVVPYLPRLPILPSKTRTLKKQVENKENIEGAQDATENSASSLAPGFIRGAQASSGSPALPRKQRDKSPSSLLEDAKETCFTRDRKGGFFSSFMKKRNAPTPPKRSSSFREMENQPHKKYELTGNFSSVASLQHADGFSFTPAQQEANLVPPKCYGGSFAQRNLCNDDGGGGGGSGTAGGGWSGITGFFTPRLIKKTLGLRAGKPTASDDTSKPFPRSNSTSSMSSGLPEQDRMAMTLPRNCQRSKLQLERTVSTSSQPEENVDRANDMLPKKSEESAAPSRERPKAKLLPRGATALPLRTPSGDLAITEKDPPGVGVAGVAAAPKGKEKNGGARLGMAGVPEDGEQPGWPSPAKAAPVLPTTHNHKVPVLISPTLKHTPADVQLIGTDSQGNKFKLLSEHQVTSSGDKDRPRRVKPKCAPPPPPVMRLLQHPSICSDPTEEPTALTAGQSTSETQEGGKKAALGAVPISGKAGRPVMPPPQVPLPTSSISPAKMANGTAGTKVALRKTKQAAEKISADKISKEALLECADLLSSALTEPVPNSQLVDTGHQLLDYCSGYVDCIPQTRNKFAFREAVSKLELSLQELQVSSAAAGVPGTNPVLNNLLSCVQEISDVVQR

[3] = target: ABL1 (Homo sapiens, UniProt P00519)
ABL1, sequence (P00519 whole entry): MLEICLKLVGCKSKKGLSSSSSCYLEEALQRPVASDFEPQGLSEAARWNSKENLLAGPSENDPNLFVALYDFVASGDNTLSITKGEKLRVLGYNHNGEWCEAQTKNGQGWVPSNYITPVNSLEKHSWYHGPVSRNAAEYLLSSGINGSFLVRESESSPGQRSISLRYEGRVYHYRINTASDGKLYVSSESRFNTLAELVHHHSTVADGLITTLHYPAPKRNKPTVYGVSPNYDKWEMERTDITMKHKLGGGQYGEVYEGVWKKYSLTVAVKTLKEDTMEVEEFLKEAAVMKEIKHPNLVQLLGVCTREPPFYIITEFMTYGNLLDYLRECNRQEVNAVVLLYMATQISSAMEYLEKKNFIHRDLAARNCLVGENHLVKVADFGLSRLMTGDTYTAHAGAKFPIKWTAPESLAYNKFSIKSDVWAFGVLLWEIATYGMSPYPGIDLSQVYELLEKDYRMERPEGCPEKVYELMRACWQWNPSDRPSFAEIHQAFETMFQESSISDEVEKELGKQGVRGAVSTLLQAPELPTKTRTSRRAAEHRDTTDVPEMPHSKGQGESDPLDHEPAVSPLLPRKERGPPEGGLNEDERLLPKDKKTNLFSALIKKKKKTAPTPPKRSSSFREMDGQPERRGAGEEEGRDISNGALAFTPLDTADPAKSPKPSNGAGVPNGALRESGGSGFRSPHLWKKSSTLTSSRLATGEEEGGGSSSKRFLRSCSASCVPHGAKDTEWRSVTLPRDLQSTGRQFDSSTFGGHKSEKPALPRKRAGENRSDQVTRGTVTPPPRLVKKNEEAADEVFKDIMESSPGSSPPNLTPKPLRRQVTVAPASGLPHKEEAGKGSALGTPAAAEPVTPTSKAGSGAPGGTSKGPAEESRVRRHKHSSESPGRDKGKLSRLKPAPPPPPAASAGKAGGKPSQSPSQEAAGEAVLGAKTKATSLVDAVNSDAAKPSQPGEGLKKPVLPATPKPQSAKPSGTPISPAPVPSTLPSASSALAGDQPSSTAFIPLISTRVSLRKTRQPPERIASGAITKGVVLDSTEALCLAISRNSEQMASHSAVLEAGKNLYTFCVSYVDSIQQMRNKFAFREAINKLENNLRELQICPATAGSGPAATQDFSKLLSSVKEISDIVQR

[4] = target: BTK (Homo sapiens, UniProt Q06187)
BTK, sequence (Q06187 whole entry): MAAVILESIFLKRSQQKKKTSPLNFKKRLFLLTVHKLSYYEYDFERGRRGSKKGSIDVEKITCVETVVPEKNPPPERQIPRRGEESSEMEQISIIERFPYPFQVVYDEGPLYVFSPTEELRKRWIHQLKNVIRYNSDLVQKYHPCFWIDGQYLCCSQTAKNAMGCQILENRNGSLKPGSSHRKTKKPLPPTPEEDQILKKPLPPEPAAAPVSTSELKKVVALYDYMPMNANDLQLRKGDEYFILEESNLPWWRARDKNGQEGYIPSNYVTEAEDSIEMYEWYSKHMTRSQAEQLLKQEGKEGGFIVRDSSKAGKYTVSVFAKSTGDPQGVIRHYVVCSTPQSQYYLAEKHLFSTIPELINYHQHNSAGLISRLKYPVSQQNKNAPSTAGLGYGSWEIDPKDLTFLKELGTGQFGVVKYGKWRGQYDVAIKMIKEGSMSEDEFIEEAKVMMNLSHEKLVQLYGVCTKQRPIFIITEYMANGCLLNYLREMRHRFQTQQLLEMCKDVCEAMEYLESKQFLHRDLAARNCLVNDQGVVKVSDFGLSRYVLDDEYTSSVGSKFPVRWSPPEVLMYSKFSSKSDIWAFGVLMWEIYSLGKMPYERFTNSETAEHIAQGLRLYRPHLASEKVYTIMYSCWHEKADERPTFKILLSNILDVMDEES

## COc1ccc2c(C(=O)Nc3ccc(NC(=O)c4nn(C5CCN(C(=O)CC(C)(C)C#N)CC5)c5ccc(F)cc45)cc3Cl)cnn2c1 [SI-3]
[1]
  Kd: 9700 nM
[2]
  Kd: 40.2 nM
[3]
  Kd: 353 nM
[4]
  Kd: 3080 nM
